The source made the active and inactive calls. No cut-off for these calls is given here.

Experiment [1] is described as follows: Inhibition of HIV1 integrase assessed as reduction in LEDGF-independent integration pre-incubated for 1 hr before addition of DNA donor and acceptor substrate and measured after 90 mins by HTRF assay. Also on record: species or system Human immunodeficiency virus 1.
Experiment [2] relates to Human immunodeficiency virus 1. Put plainly: Binding affinity to HIV1 integrase assessed as conjugation of enzyme at 7.5 to 25 uM in presence of UV illumination for 15 mins by SDS-PAGE analysis based photoaffinity labelling method. Particulars: dose microM 7.5-25, time 15.0 min.
Experiment [3] concerns Human immunodeficiency virus 1. Put plainly: Binding affinity to HIV1 integrase assessed as induction of enzyme molecular weight shift at 7.5 to 25 uM in presence of UV illumination for 15 mins by LC-MS analysis. Particulars: dose microM 7.5-25, time 15.0 min.
Experiment [4] has as its system Human immunodeficiency virus 1. Put plainly: Binding affinity to HIV1 integrase assessed as induction of cross-linking at peptide region 164ELK166 at 7.5 to 25 uM in presence of UV illumination for 15 mins in presence of trypsin by LC-MS analysis. Particulars: dose microM 7.5-25, time 15.0 min.
Experiment [5] deals with Human immunodeficiency virus 1. Put plainly: Binding affinity to HIV1 integrase assessed as induction of cross-linking at peptide region 42EIVASCDK49 at 7.5 to 25 uM in presence of UV illumination for 15 mins in presence of trypsin by LC-MS analysis. Particulars: dose microM 7.5-25, time 15.0 min.

As usually defined, the IC50 is the concentration that inhibits the measured activity by half. Consider `CC(C)c1nc(C(=O)O)c(O)c(=O)n1C`, for which the IC50 in experiment [1] is 73000 nM.

Take `Cc1nnc(C(=O)NC(C)(C)c2nc(C(=O)NCc3ccc(F)cc3)c(O)c(=O)n2C)o1` [RALTEGRAVIR]: in experiment [1], the IC50 was 58 nM.

Consider `CC(C)c1nc(C(=O)NCc2ccc(C(=O)c3ccccc3)cc2)c(O)c(=O)n1C`, for which the concentration for half-maximal inhibition (IC50) in experiment [1] worked out at 2300 nM. Besides, the result in experiment [2], in experiment [3], in experiment [4] and in experiment [5] was Active.

(Values after ChEMBL document CHEMBL4725446, “Development of a Raltegravir-based Photoaffinity-Labeled Probe for Human Immunodeficiency Virus-1 Integrase Capture” (ACS Med Chem Lett, 2020).)
